In ChEMBL document CHEMBL1129860, “Studies on penam sulfones III. Synthesis and -lactamase inhibitory activity of sodium (6R)-6-(-hydroxybenzyl)-2-methoxyiminomethyl-2-methylpenam-3-carboxylate 1,1-dioxide and sodium 2-acyl-2-methylpenam-3-carboxylate 1,1-dioxide” (1997) one finds MIC data, which are given here for three compounds.

Converted amounts (≈) assume the structure as drawn.

Experiment [1] relates to Pseudomonas aeruginosa. The experiment can be described thus: microbe, parasite or virus in culture.
The test system of experiment [2] is Morganella morganii. The experiment can be described thus: In vitro minimal inhibitory concentration (MIC) of compound in combination with Ceftazidime (CAZ) showed synergic activity against Morganella morganii 36014. Type of experiment: functional.
Experiment [3] deals with Pseudomonas aeruginosa. Briefly: microbe, parasite or virus in culture. This is another data set of the same source.
Experiment [4] relates to Klebsiella aerogenes. The experiment can be described thus: In vitro minimal inhibitory concentration (MIC) of compound in combination with Ceftazidime (CAZ) showed synergic activity against Enterobacter aerogenes S-97. The format is functional.
Experiment [5] has as its system Morganella morganii. The experiment can be described thus: In vitro minimal inhibitory concentration (MIC) of compound in combination with Ceftazidime (CAZ) showed synergic activity against Morganella morganii 36030. Type of experiment: functional.
Experiment [6] deals with Enterobacter cloacae. Briefly: In vitro minimal inhibitory concentration (MIC) of compound in combination with Ceftazidime (CAZ) showed synergic activity against Enterobacter cloacae S-65. Type of experiment: functional.
Experiment [7] deals with Enterobacter cloacae. Briefly: In vitro minimal inhibitory concentration (MIC) of compound in combination with Ceftazidime (CAZ) showed synergic activity against Enterobacter cloacae S-11. Type of experiment: functional.
Experiment [8] has as its system Citrobacter freundii. The experiment can be described thus: In vitro minimal inhibitory concentration (MIC) of compound in combination with Ceftazidime (CAZ) showed synergic activity against Citrobacter freundii CT 76. The format is functional.
Experiment [9] has as its system Klebsiella aerogenes. The experiment can be described thus: In vitro minimal inhibitory concentration (MIC) of compound in combination with Ceftazidime (CAZ) showed synergic activity against Enterobacter aerogenes 41004. Type of experiment: functional.
The test system of experiment [10] is Enterobacter cloacae. Briefly: In vitro minimal inhibitory concentration (MIC) of compound in combination with Ceftazidime (CAZ) showed synergic activity against Enterobacter cloacae 40011. The format is functional.
Experiment [11] has as its system Pseudomonas aeruginosa. The experiment can be described thus: In vitro minimal inhibitory concentration (MIC) of compound in combination with Ceftazidime (CAZ) showed synergic activity against Pseudomonas aeruginosa 46220 (DR-2). The format is functional.
In experiment [12] the test system is Enterobacter cloacae. The experiment can be described thus: In vitro minimal inhibitory concentration (MIC) of compound in combination with Ceftazidime (CAZ) showed synergic activity against Enterobacter cloacae P99. The format is functional.
Experiment [13] concerns Klebsiella aerogenes. Briefly: In vitro minimal inhibitory concentration (MIC) of compound in combination with Ceftazidime (CAZ) showed synergic activity against Enterobacter aerogenes 41003. The format is functional.
In experiment [14] the test system is Escherichia coli. Briefly: In vitro minimal inhibitory concentration (MIC) of compound in combination with Ceftazidime (CAZ) showed synergic activity against Escherichia coli TEM 3. The format is functional.
In experiment [15] the test system is Klebsiella aerogenes. Briefly: In vitro minimal inhibitory concentration (MIC) of compound in combination with Ceftazidime (CAZ) showed synergic activity against Enterobacter aerogenes 41006. The format is functional.
Experiment [16] relates to Klebsiella pneumoniae. The experiment can be described thus: In vitro minimal inhibitory concentration (MIC) of compound in combination with Ceftazidime (CAZ) showed synergic activity against Klebsiella pneumoniae CTX 1. Type of experiment: functional.
The test system of experiment [17] is Citrobacter freundii. The experiment can be described thus: In vitro minimal inhibitory concentration (MIC) of compound in combination with Ceftazidime (CAZ) showed synergic activity against Citrobacter freundii 44032. Type of experiment: functional.
Experiment [18] relates to Enterobacter cloacae. The experiment can be described thus: In vitro minimal inhibitory concentration (MIC) of compound in combination with Ceftazidime (CAZ) showed synergic activity against Enterobacter cloacae E40002. Type of experiment: functional.
Experiment [19] concerns Escherichia coli. The experiment can be described thus: In vitro minimal inhibitory concentration (MIC) of compound in combination with Ceftazidime (CAZ) showed synergic activity against Escherichia coli TEM 7. Type of experiment: functional.
The subject of experiment [20] is Proteus vulgaris. Briefly: In vitro minimal inhibitory concentration (MIC) of compound in combination with Ceftazidime (CAZ) showed synergic activity against Proteus vulgaris CT 106. Type of experiment: functional.
In experiment [21] the test system is Enterobacter cloacae. Briefly: In vitro minimal inhibitory concentration (MIC) of compound against Enterobacter cloacae E40002. The format is functional.
Experiment [22] has as its system Escherichia coli. Briefly: In vitro minimal inhibitory concentration (MIC) of compound against Escherichia coli TEM 7. Type of experiment: functional.
Experiment [23] deals with Pseudomonas aeruginosa. Briefly: In vitro minimal inhibitory concentration (MIC) of compound against Pseudomonas aeruginosa CT-122. Type of experiment: functional.
The subject of experiment [24] is Klebsiella aerogenes. The experiment can be described thus: In vitro minimal inhibitory concentration (MIC) of compound against Enterobacter aerogenes 41003. The format is functional.
Experiment [25] concerns Enterobacter cloacae. Briefly: In vitro minimal inhibitory concentration (MIC) of compound against Enterobacter cloacae P99. Type of experiment: functional.
The subject of experiment [26] is Proteus vulgaris. The experiment can be described thus: In vitro minimal inhibitory concentration (MIC) of compound against Proteus vulgaris CT 106. The format is functional.
In experiment [27] the test system is Klebsiella aerogenes. The experiment can be described thus: In vitro minimal inhibitory concentration (MIC) of compound against Enterobacter aerogenes 41006. Type of experiment: functional.
In experiment [28] the test system is Pseudomonas aeruginosa. The experiment can be described thus: In vitro minimal inhibitory concentration (MIC) of compound against Pseudomonas aeruginosa CT-137. The format is functional.
In experiment [29] the test system is Pseudomonas aeruginosa. Briefly: In vitro minimal inhibitory concentration (MIC) of compound against Pseudomonas aeruginosa 46220 (DR-2). The format is functional.
Experiment [30] relates to Enterobacter cloacae. The experiment can be described thus: In vitro minimal inhibitory concentration (MIC) of compound against Enterobacter cloacae S-65. Type of experiment: functional.
Experiment [31] concerns Enterobacter cloacae. The experiment can be described thus: In vitro minimal inhibitory concentration (MIC) of compound against Enterobacter cloacae S-11. Type of experiment: functional.
Experiment [32] relates to Citrobacter freundii. The experiment can be described thus: In vitro minimal inhibitory concentration (MIC) of compound against Citrobacter freundii CT 76. Type of experiment: functional.
The subject of experiment [33] is Klebsiella aerogenes. Briefly: In vitro minimal inhibitory concentration (MIC) of compound against Enterobacter aerogenes S-97. The format is functional.
The test system of experiment [34] is Escherichia coli. The experiment can be described thus: In vitro minimal inhibitory concentration (MIC) of compound against Escherichia coli TEM 3. The format is functional.
In experiment [35] the test system is Klebsiella aerogenes. Briefly: In vitro minimal inhibitory concentration (MIC) of compound against Enterobacter aerogenes 41004. Type of experiment: functional.
For experiment [36], the system named is Klebsiella pneumoniae. Briefly: In vitro minimal inhibitory concentration (MIC) of compound against Klebsiella pneumoniae CTX 1. Type of experiment: functional.
Experiment [37] deals with Morganella morganii. The experiment can be described thus: In vitro minimal inhibitory concentration (MIC) of compound against Morganella morganii 36030. The format is functional.
For experiment [38], the system named is Enterobacter cloacae. Briefly: In vitro minimal inhibitory concentration (MIC) of compound against Enterobacter cloacae 40011. Type of experiment: functional.
Experiment [39] concerns Morganella morganii. Briefly: In vitro minimal inhibitory concentration (MIC) of compound against Morganella morganii 36014. Type of experiment: functional.
Experiment [40] concerns Citrobacter freundii. The experiment can be described thus: In vitro minimal inhibitory concentration (MIC) of compound against Citrobacter freundii 44032. Type of experiment: functional.
Setting [41] is: Morganella morganii, read-out: MIC.

For the compound `CC(C)(O/N=C(\C(=O)NC1C(=O)N2C(C(=O)[O-])=C(C[n+]3ccccc3)CSC12)c1csc(N)n1)C(=O)O.CO/N=C/[C@@]1(C)[C@H](C(=O)[O-])N2C(=O)[C@@H]([C@@H](O)c3ccccc3)[C@H]2S1(=O)=O.[Na+]` (configuration not stated), the MIC in experiment [1] is 16 µg/mL; in [2] (setting [41]), 2 µg/mL; in [3] it was 32 µg/mL; in experiment [4], 4 µg/mL; in [5] it was 1 µg/mL; in experiment [6], below 0.25 µg/mL. In addition, in experiment [7], the MIC was below 0.25 µg/mL.
Consider `CC(=O)[C@@]1(C)[C@H](C(=O)[O-])N2C(=O)CC2S1(=O)=O.CC(C)(O/N=C(\C(=O)NC1C(=O)N2C(C(=O)[O-])=C(C[n+]3ccccc3)CSC12)c1csc(N)n1)C(=O)O.[Na+]` (configuration not stated), for which the MIC in experiment [8] is 12.5 µg/mL; in experiment [9], 1.56 µg/mL; in [10] it was 1.56 µg/mL; in [2], at most 0.2 µg/mL; in experiment [11], 6.25 µg/mL; in [12], 6.25 µg/mL. Also, the MIC in [13] stood at 1.56 µg/mL; in experiment [14] it was 0.39 µg/mL; in experiment [15] it was 12.5 µg/mL; in [16] it was 1.56 µg/mL; in experiment [17], 12.5 µg/mL; in [18], 12.5 µg/mL. In addition, the MIC in [19] is 0.39 µg/mL; in experiment [20], 1.56 µg/mL.
With `CC(C)(O/N=C(\C(=O)N[C@@H]1C(=O)N2C(C(=O)[O-])=C(C[n+]3ccccc3)CS[C@H]12)c1csc(N)n1)C(=O)O` [CEFTAZIDIME], the MIC worked out at 200 µg/mL (≈ 366 µM) in experiment [21]; 12.5 µg/mL (≈ 22.9 µM) in [22]; 32 µg/mL (≈ 58.5 µM) in [23]; 12.5 µg/mL (≈ 22.9 µM) in experiment [24]; 100 µg/mL (≈ 183 µM) in experiment [25]; 12.5 µg/mL (≈ 22.9 µM) in experiment [26]. For the same compound, the MIC in experiment [27] amounted to 200 µg/mL (≈ 366 µM); in experiment [28] it was 16 µg/mL (≈ 29.3 µM); in experiment [29], 25 µg/mL (≈ 45.7 µM); in experiment [30] it was 2 µg/mL (≈ 3.66 µM); in [31], 2 µg/mL (≈ 3.66 µM); in experiment [32] it was 50 µg/mL (≈ 91.5 µM). The MIC in [33] is 8 µg/mL (≈ 14.6 µM); in experiment [34], 25 µg/mL (≈ 45.7 µM); in [35] it was 12.5 µg/mL (≈ 22.9 µM); in [36], 100 µg/mL (≈ 183 µM); in experiment [37], above 32 µg/mL; in experiment [38] it was 25 µg/mL (≈ 45.7 µM). The MIC in experiment [39] was 25 µg/mL (≈ 45.7 µM); in [39] (setting [41]) it was above 32 µg/mL; in experiment [40] it was 400 µg/mL (≈ 732 µM).
